What was measured:
Type in all cases: cell-based, human
[1] = system: NOX activity; test: Amplex Red measurement of extracellular hydrogen peroxide (NOX activity) using DMSO-differentiated HL60 cells; conditions: for Inhibition (%) of NOX activity: Amplex red, DMSO-differentiated HL60 cells, compound concentration not stated
Method: Human acute myeloid leukemia cell line HL-60 was cultured in RPMI 1640 (Invitrogen) supplemented with 10% heat-inactivated calf serum, 2 mM glutamine, 100 U/mL penicillin (Sigma), and 100 μg streptomycin (Sigma) at 37° C. under a humidified atmosphere of 5% CO2. HL60 differentiation to the neutrophil phenotype was triggered by adding Me2SO (final concentration 1.25% v/v for 6 days) to the culture medium.
Extracellular hydrogen peroxide was measured using Amplex UltraRed (Molecular Probes). Cells were trypsinized (1× Trypsin-EDTA), collected by centrifugation, and resuspended in HBSS supplemented with 1% glucose. Cells were seeded into black 96-well plates at a density of 50′000 cells in 200 μl testing buffer (HBSS 1% glucose containing 0.005 U/mL horseradish peroxidase (Roche) and 50 μM Amplex Red in the presence or absence of compounds according to the invention. As a control, DPI was included at a final concentration of 10 μM The plates were placed in the fluorescent Optima Fluorescent plate reader and kept at 37° C. during 20 min Fluorescence was measured for […] with excitation and emission wavelengths of 544 nm and 590 nm respectively. NOX activities were expressed as % of the activity in control cells. Residual activity of DPI-treated cells was usually <10%.
The Table 2 below summarizes the percentage of inhibition of NOX activity as measured by Amplex red using DMSO-differentiated HL60 cells as described above: […]

[2] = system: NOX activities; test: Nitroblue tetrazolium (NBT) test of intracellular and extracellular superoxide in cells; conditions: DPI at a final concentration of 10 μM
Method: Intracellular and extracellular superoxide was measured by a colorimetric technique using a quantitative nitroblue tetrazolium (NBT) test. SOD-inhibitable conversion of NBT to formazan, a fine blue precipitate, in the presence of superoxide anion was measured using Fluostar Optima spectrometer (BMG labtech). Following incubation with appropriate stimuli, cells were trypsinized (1× Trypsin-EDTA), collected by centrifugation, and washed with PBS to remove medium. 5×10^5 cells were plated on 48-well plates and incubated in Hank's balanced salt solution containing 0.5 mg/mL NBT with or without 800 U/mL SOD in the presence or absence of compounds according to the invention. As a control, DPI was included at a final concentration of 10 μM. After 2.5 h, cells were fixed and washed with methanol to remove non reduced NBT. The reduced formazan was then dissolved in 230 μl of 2M potassium hydroxide and in 280 μl of dimethylsulfoxide. The absorption was measured at 630 nm. For calculation, the absorbance at 630 nm was normalized for each individual well. The mean of the four blank values was subtracted from each corrected value for each time point. NOX activities were expressed as % of the activity in control cells. Residual activity of DPI-treated cells was usually <10%.

[3] = system: NOX activities; test: Chemiluminescence (luminol) measurement of ROS in cells
Method: ROS was measured using the chemiluminescent probe luminol. Cells were cultured and plated as for Amplex Red except that the Amplex Red agent was replaced by 10 μg/mL luminol (Sigma 09235). Light emission was recorded continuously at 37° C. for 60 minutes using the luminescence function of the FluoStar Optima fluorescent plate reader. The mean of the four blank values was subtracted from each corrected value for each time point. NOX activities were expressed as % of the activity in control cells. Residual activity of DPI-treated cells was usually <10%.

[4] = system: NOX activities; test: H2DCF-DA (DCF fluorescence) ROS measurement in TGF-β stimulated HUVEC
Method: HUVEC are cultured in endothelial basal medium supplemented with hydrocortisone (1 μg/mL, CalbioChem), bovine brain extract (12 μg/mL), gentamicin (50 μg/mL, CalbioChem), amphotericin B (50 ng/mL, CalBioChem EGF (10 ng/mL, and 10% FCS until the fourth passage. When the fifth passage was started, cells were cultured with a lower concentration of FCS (2%) in the absence of EGF, if not indicated otherwise. All experiments were done with cells of the fifth passage. The cells were incubated with OxLDL (oxidized low-density lipoprotein) or its buffer as control for 24 h, before detection of O2^− formation.
HUVEC were plated on coverslips and made quiescent overnight in 0.5% BSA before stimulation with TGF-β. Cells were loaded for 10 minutes with 5 μM CM-H2DCFDA in phenol-red-free medium in the dark and then treated with TGF-β (R&D Systems) in the presence or absence of compounds according to the invention. Cells were then visualized by immunofluorescence microscopy after fixation and staining of the nuclei with DAPI or examined live using confocal microscopy. DCF fluorescence was visualized at an excitation wavelength of 488 nm and emission at 515 to 540 nm. […] For calculation, the absorbance at […] was normalized to absorbance at […] for each individual well. […] NOX activities were expressed as % of the activity in control cells. […]

## O=c1c2c(COCc3ccccc3)n(CC3CCCNC3)c(=O)cc2[nH]n1-c1ccccc1Cl (stereo not drawn) [Compound 130, 4-[(benzyloxy)methyl]-2-(2-chlorophenyl)-5-(piperidin-3-ylmethyl)-1H-pyrazolo[4,3-c] pyridine-3,6(2H,5H)-dione]
[1]
  Inhibition (%) of NOX activity: 80%

## Cn1c(COCc2cccc(Cl)c2)c2c(=O)n(-c3ccccc3Cl)[nH]c2cc1=O [Compound 139, 4-{[(3-chlorobenzyl)oxy]methyl}-2-(2-chlorophenyl)-5-methyl-1H-pyrazolo[4,3-c] pyridine-3,6(2H,5H)-dione]
[1]
  Inhibition (%) of NOX activity: 76%

## COc1cccc(CN(C)Cc2c3c(=O)n(-c4ccccc4Cl)[nH]c3cc(=O)n2C)c1 [Compound 143, 2-(2-chlorophenyl)-4-{[(3-methoxybenzyl) (methyl)amino]methyl}-5-methyl-1H-pyrazolo [4,3-c]pyridine-3,6 (2H,5H)-dione]
[1]
  Inhibition (%) of NOX activity: 82%

## CN(Cc1cccnc1)Cc1c2c(=O)n(-c3ccccc3Cl)[nH]c2cc(=O)n1C [Compound 147, 2-(2-chlorophenyl)-5-methyl-4-{[methyl (pyridin-3-ylmethyl)amino]methyl}-1H-pyrazolo[4,3-c] pyridine-3,6(2H,5H)-dione]
[1]
  Inhibition (%) of NOX activity: 80%

## COc1cccc(N2CCN(Cc3c4c(=O)n(-c5ccccc5Cl)[nH]c4cc(=O)n3C)CC2)c1 [Compound 163, 2-(2-chlorophenyl)-4-{[4-(3-methoxyphenyl)piperazin-1-yl]methyl}-5-methyl-1H-pyrazolo[4,3-c]pyridine-3,6(2H,5H)-dione]
[1]
  Inhibition (%) of NOX activity: 80%

## c1ccc([I+]c2ccccc2)cc1 [DPI, Diphenyl-iodonium]
[2]
  Residual activity of DPI-treated cells (NOX activity as % of the activity in control cells): < 10%
[3]
  Residual activity of DPI-treated cells (NOX activity as % of the activity in control cells): < 10%
[1]; Amplex Red, DPI at a final concentration of 10 μM
  Residual activity of DPI-treated cells (NOX activity as % of the activity in control cells): < 10%
[4]
  Residual activity of DPI-treated cells (NOX activity as % of the activity in control cells): < 10%

From US8455485B2, “Pyrazolo pyridine derivatives as NADPH oxidase inhibitors” (Genkyotex SA, priority 2008, dated 2013)
